Where two headings read alike, the source gives them in different places.
Assays:
[1] = system: adjuvant-induced arthritis in rats; assay: Established Adjuvant-Induced Arthritis in Rats; type: in vivo, Charles River Lewis male rats; settings: for ED50: Rattus norvegicus, read-out: A. A. ED50%
[2] = system: phenylquinone-induced writhing in mice; assay: Phenylquinone Writhing Test; type: in vivo, female white mice; settings: Mus musculus, 0.5 h, oral, at 1/2 hour
Method: A standard procedure for detecting and comparing the analgesic activity of compounds in this series for which there is good correlation with human efficacy is the standard phenylquinone writhing test modified from Siegmund, et al., Proc. Soc. Exp. Biol. Med. 95, 729 (1957). A test compound suspended in 1% methylcellulose was given orally to fasted (17-21 hours) female white mice, 5-20 animals per double blind test. Aqueous (0.01% phenyl-p-benzoquinone) phenylquinone was injected intraperitoneally at 24 minutes later using 0.20 ml per mouse. […] The effective analgesic dose for 50% of the mice (ED50) was calculated by the moving average method of Thompson, W. R., Bact. Rev. 11, 115-145 (1947); also time of peak action was determined for many of the compounds.

[3] = oral, 7 daily doses, established adjuvant arthritis rats
[4] = oral, 7 daily doses, established adjuvant arthritis rats, determined as % paw volume reduction from control

SMILES | ED50 [2] | ED50 [1, 4] | further results
CC(=O)Oc1ccccc1C(=O)O [Aspirin, reference compound] | – | – | ED50 ([1]; po): 305 mg/kg
FC(F)C(F)(F)Sc1nc(-c2cccs2)c(-c2cccs2)[nH]1 [Example 1, 2-[(1,1,2,2-Tetrafluoroethyl)thio]-4,5-bis-(2-thienyl)-1H-imidazole] | 4.6 mg/kg | – | % paw volume reduction from control at 50 mg/kg [1, 3]: 32%
Fc1ccc(-c2nc(SC(F)(F)C(F)F)[nH]c2-c2cccs2)cc1 [Example 2, 4-(4-Fluorophenyl)-2-(1,1,2,2-tetrafluoroethylthio)-5-(2-thienyl)-1H-imidazole] | – | 1.3 mg/kg | –
O=S(=O)(c1nc(-c2ccc(F)cc2)c(-c2cccs2)[nH]1)C(F)(F)C(F)F [Example 3, 4-(4-Fluorophenyl)-2-(1,1,2,2-tetrafluoroethylsulfonyl)-5-(2-thienyl)-1H-imidazole] | 2.1 mg/kg | 0.1 mg/kg | –
FC(F)C(F)(F)Sc1nc(-c2ccc(Cl)cc2)c(-c2cccs2)[nH]1 [Example 4, 4-(4-Chlorophenyl)-2-(1,1,2,2-tetrafluoroethylthio)-5-(2-thienyl)-1H-imidazole] | – | 12 mg/kg | –
O=S(=O)(c1nc(-c2cccs2)c(-c2cccs2)[nH]1)C(F)(F)C(F)F [Example 5, 2-(1,1,2,2-Tetrafluoroethylsulfonyl)-4,5-bis-(2-thienyl)-1H-imidazole] | < 130 mg/kg | 2.2 mg/kg | –
FC(F)C(F)(F)Sc1nc(-c2ccc(Cl)c(Cl)c2)c(-c2cccs2)[nH]1 [Example 6, 4-(3,4-Dichlorophenyl)-2-(1,1,2,2-tetrafluoroethylthio)-5-(2-thienyl)-1H-imidazole] | – | 50 mg/kg | –
COc1ccc(-c2nc(SC(F)(F)C(F)F)[nH]c2-c2cccs2)cc1 [Example 8, 4-(4-Methoxyphenyl)-2-(1,1,2,2-tetrafluoroethylthio)-5-(2-thienyl)-1H-imidazole] | 45 mg/kg | 30 mg/kg | –
COc1ccc(-c2nc(S(=O)(=O)C(F)(F)C(F)F)[nH]c2-c2cccs2)cc1 [Example 9, 4-(4-Methoxyphenyl)-2-(1,1,2,2-tetrafluoroethylsulfonyl)-5-(2-thienyl)-1H-imidazole] | 1.67 mg/kg | 5 mg/kg | –
FC(F)C(F)(F)Sc1nc(-c2ccco2)c(-c2ccco2)[nH]1 [Example 10, 4,5-bis-(2-Furyl)-2-(1,1,2,2-tetrafluoroethylthio)-1H-imidazole] | – | – | % paw volume reduction from control at 50 mg/kg [1, 3]: 34%
FC(F)C(F)(F)Sc1nc(-c2ccccc2)c(-c2cccnc2)[nH]1 [Example 11, 4-Phenyl-5-(3-pyridyl)-2-(1,1,2,2-tetrafluoroethylthio)-1H-imidazole] | – | < 25 mg/kg | –
CC(C)Cc1ccc(C(C)C(=O)O)cc1 (stereo not shown) [Ibuprofen, reference compound] | – | 100 mg/kg | –
COc1ccc2c(c1)c(CC(=O)O)c(C)n2C(=O)c1ccc(Cl)cc1 [Indomethacin, reference compound] | – | – | ED50 ([1]; po): 0.3 mg/kg
CCCCC1C(=O)N(c2ccccc2)N(c2ccccc2)C1=O [Phenylbutazone, reference compound] | – | 10 mg/kg | –
